Source: patent publication US9850493B2, “Biological methods for preparing a fatty dicarboxylic acid” (VERDEZYNE, INC., priority 2012, dated 2017)

Experiment: In vitro acyl-CoA oxidase activity assay of E. coli lysates
Type: biochemical, Candida strain ATCC20336
Settings: wild type enzyme, FIG. 21
Text: Acyl-CoA oxidases from a range of organisms were cloned into the E. coli expression vector pET26b (EMD4Biosciences, Darmstadt, Germany), which contains a kanamycin resistance cassette. The source of the acyl-CoA oxidase, the name of the gene, the primers and restriction enzymes used to clone the acyl CoA oxidase coding sequence into pET26b and the coding sequence are described herein. The acyl CoA oxidase coding sequences were amplified by PCR using the appropriate primers designed from cDNA libraries, published cDNA or genomic DNA sequences corresponding to the organism. […]
To express an enzyme, a colony from each transformation of Rosetta cells was used to start a 5 ml overnight culture of LB containing the antibiotics kanamycin (to select for pET26b) and chloramphenicol (to select for a second plasmid found in Rosetta II cells that mediates improved translation of eukaryotic proteins expressed in E. coli) grown at 37° C. The next morning, the overnight culture was used to seed 30 ml of LB containing kanamycin and chloramphenicol to an OD600 reading of 0.1. […]
To test the activity of the acyl CoA oxidase, cells from the overnight induction were pelleted at 1046×g at 4° C. in 50 ml conical tubes. […] The spectrophotometer was set to read for 5 minutes at 500 nm, 30° C. […]

Pox5: wild type acyl CoA oxidase Pox5 from Candida strain ATCC20336
activity on C6 and C8 substrates: low activity
substrate chain length of optimal activity: 12 to 18 carbons
